Measurements from US12275721B2, “Indazole carboxamides as kinase inhibitors” (BRISTOL-MYERS SQUIBB COMPANY, priority 2019, dated 2025).
Where two headings read alike, the source gives them in different places.

What was measured:
[1] = target: T1, His-GST-TVMV-hRIPK1(1-324) (Homo sapiens, UniProt Q13546); assay: RIPK1 HTRF Binding Assay; conditions: HTRF probe displacement, 1 h at rt
T1 construct: 1 nM His-GST-TVMV-hRIPK1(1-324) in FRET Buffer; made in house; host or cells: Spodoptera frugiperda (Sf9) insect cells, baculovirus (Bac-to-Bac)
T1 sequence (Q13546 1-324): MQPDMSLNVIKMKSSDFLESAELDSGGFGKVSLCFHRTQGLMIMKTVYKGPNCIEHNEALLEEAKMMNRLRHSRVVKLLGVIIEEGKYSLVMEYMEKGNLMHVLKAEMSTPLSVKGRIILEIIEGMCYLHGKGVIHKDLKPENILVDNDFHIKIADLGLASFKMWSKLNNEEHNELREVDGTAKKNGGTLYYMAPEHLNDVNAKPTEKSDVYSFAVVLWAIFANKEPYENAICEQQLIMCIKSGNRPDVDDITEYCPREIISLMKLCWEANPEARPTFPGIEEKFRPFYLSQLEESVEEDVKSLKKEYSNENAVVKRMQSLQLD
Description: A solution was prepared containing 0.2 nM Anti GST-Tb (Cisbio, 61GSTTLB), 90.6 nM probe and 1 nM His-GST-TVMV-hRIPK1(1-324) in FRET Buffer (20 mM HEPES, 10 mM MgCl2, 0.015% Brij-35, 4 mM DTT, 0.05 mg/mL BSA). Using Formulatrix Tempest, the detection antibody/enzyme/probe solution ([…]) was dispensed into wells of a 1536 plate (Black Low Binding Polystyrene 1536 Plate (Corning, 3724)) containing 10 nL of compounds of interest at appropriate concentration in DMSO. The plate was incubated at rt for 1 h. FRET was measured using the EnVision plate reader (Excitation: 340 nm, Emission: 520 nm/[…]). Total signal (0% inhibition) was calculated from wells containing 10 nL DMSO only.
Cloning and Baculovirus Expression of RIPK1 Construct
The coding region of human RIPK1(1-324) flanked by NdeI site at 5′ end and stop codon TGA and XhoI site at 3′ end was codon optimized and gene synthesized at GenScript USA Inc. (Piscataway, NJ) and subcloned into a modified pFastBac1 vector (Invitrogen, Carlsbad, CA) with N-terminal His-GST-TVMV tag, to generate His-GST TVMV-hRIPK1(1-324)-pFB. The fidelity of the synthetic fragment was confirmed by sequencing. Baculovirus was generated for the construct using the Bac-to-Bac baculovirus expression system (Invitrogen) according to the manufacturer's protocol. Briefly, recombinant bacmid was isolated from transformed DH10Bac E. coli competent cells 20 (Invitrogen) and used to transfect Spodoptera frugiperda (Sf9) insect cells (Invitrogen). Baculovirus was harvested 72 hours post transfection and a virus stock was prepared by infecting fresh Sf9 cells at a 1/1000 (v/v) ratio for 66 hours. For large scale protein production, Sf9 cells (Expression System, Davis, CA) grown in ESF921 insect medium (Expression System) at 2×10^6 cells/ml were infected with virus stock at a 1/100 (v/v) ratio for 66 hours. The production was carried out either at a 10 L scale in a 22 L cellbag (GE Healthcare Bioscience, Pittsburgh, PA) or at a 20 L scale in a 50 L cellbag using WAVE-Bioreactor System 20/50 (GE Healthcare Bioscience). The infected cells were harvested by centrifugation at 2000 rpm for 20 min at 4° C. in a SORVALL® RC12BP centrifuge. The cell pellets was stored at −70° C. before protein was purified.
Purification of His-GST-TVMV-hRIPK1(1-324)
RIPK1 containing cell paste was resuspended in 50 mM Tris pH 7.5, 150 mM NaCl, 10 mM imidazole, 5% glycerol, 5 mM MgSO4, 1 mM TCEP, 25 U/ml Benzonase, and Complete Protease Inhibitor tablets (1/50 ml, Roche Diagnostics, Indianapolis, IN). The cells were lysed by nitrogen cavitation using an unstirred pressure vessel @ 525 PSI (Parr Instrument Company, Moline, IL). The suspension was clarified by centrifugation at 136,000×g for 40 min, at 4° C. The lysate was decanted from the pellet and passed through a 5 ml NiNTA Superflow cartridge (Qiagen, Valencia, CA) using an AKTA Pure (GE Healthcare). Column was eluted with 10 CV linear gradient into 50 mM Tris 7.5, 150 mM NaCl, 500 mM imidazole, 5% glycerol, 1 mM TCEP. Peak fractions were pooled and loaded directly onto 5 ml GSTrap 4B column (GE Healthcare). Column was washed with 50 mM Tris 7.0, 150 mM NaCl, […], 1 mM DTT and eluted in 10 CV linear gradient into 50 mM Tris 8.0, 150 mM NaCl, 20 mM reduced glutathione, 50% glycerol, 1 mM DTT. Fractions identified by SDS-PAGE as containing RIPK1 were pooled and concentrated using 30 kDa MWCO spin concentrators (Amicon Ultra-15, Millipore, Billerica, MA) and loaded onto a HiLoad 26/600 Superdex 200 column (GE Healthcare) equilibrated in 25 mM Tris 7.5, 150 mM NaCl, 2 mM TCEP, […]. The RTPK1 protein eluted as a dimer off the SEC column. The yield was ˜8 mg/L with a purity […] as determined by Coomassie stain SDS-PAGE gel analysis. […] Protein was aliquoted and stored at −80° C. Using these assays, the IC50 values of the following compounds were determined.

[2] = system: MLKL phosphorylation in HT29-L23 human colorectal adenocarcinoma cells; assay: MLKL Phosphorylation High-Content Assay; type: cell-based; conditions: necroptosis induced with TNFα, SMAC mimetic and Z-VAD, 6 h, read-out: pMLKL (IC50)
Description: MLKL Phosphorylation High-Content Assay
HT29-L23 human colorectal adenocarcinoma cells were maintained in RPMI 1640 medium containing 10% heat-inactivated FBS, 1% Penicillin-Streptomycin and 10 mM HEPES. Cells were seeded at 2,000 cells/well in 384 well tissue culture-treated microplates (Greiner #781090-3B) and incubated at 37° C. (5% CO2/95% O2) for 2 d. On the day of the assay, the cells were treated with test compounds at final concentrations of 6.25 to 0.106 μM for 30 min at 37° C. (5% CO2/95% O2). Necroptopsis was induced using a mixture of human TNFα (35 ng/mL) (Peprotech #300-01A), SMAC mimetic (from US 2015/0322111 A1) (700 nM) and Z-VAD (140 nM) (BD pharmingen #51-6936). Following 6 h incubation at 37° C. (5% CO2/95% O2), the cells were fixed with 4% formaldehyde (ACROS 11969-0010) for 15 min at rt, then permeabilized with phosphate buffered saline (PBS) containing 0.2% Triton-X-100 for 10 min. MLKL phosphorylation was detected using anti-MLKL (phospho S358) antibody (Abcam #ab187091) (1:1000 dilution in Blocking Buffer [PBS supplemented with 0.1% BSA]) with ON incubation at 4° C. After washing three times in PBS, goat anti-rabbit Alexa-488 (1:1000 dilution) (Life Technologies, A1 1008) and Hoechst 33342 (Life Technologies, H3570) (1:2000 dilution) in Blocking Buffer were added for 1 h at rt. Following another three cycles of washes in PBS, the microplates were sealed, and cellular images were acquired in the Cellomics ArrayScan VTI high-content imager equipped with an X1 camera. Fluorescent images were taken using a 10× objective and the 386-23 BGRFRN_BGRFRN and 485-20 BGRFRN_BGRFRN filter sets, for nuclei and MLKL phosphorylation, respectively. The image sets were analyzed using the Compartmental Analysis Bioapplication software (Cellomics). The level of MLKL phosphorylation was quantified as MEAN_CircRingAvglntenRatio. The maximal inhibitory response was defined by the activity induced by Necls (CAS #: 852391-15-2, 6.25 μm). The IC50 value was defined as the concentration of compound that produces 50% of the maximal inhibition. The data were fitted using the 4-parameter logistic equation to calculate the IC50 and Ymax values.

In the case of `CNC(=O)c1n[nH]c2cc(-c3nc(C)c(C(=O)NCc4cc(C(F)(F)F)ccc4F)n3C)ccc12` [Example 30, 6-(5-((2-fluoro-5-(trifluoromethyl)benzyl)carbamoyl)-1,4-dimethyl-1H-imidazol-2-yl)-N-methyl-1H-indazole-3-carboxamide], the IC50 [1] is reported as 0.1 µM and the IC50 ([2]; Homo sapiens) is reported as 0.15 µM.

`CNC(=O)c1n[nH]c2cc(-c3nc(C(=O)NCc4cc(OC(F)(F)F)ccc4F)c(C)n3C)ccc12` [Example 31, 6-(4-((2-fluoro-5-(trifluoromethoxy)benzyl)carbamoyl)-1,5-dimethyl-1H-imidazol-2-yl)-N-methyl-1H-indazole-3-carboxamide] was tested, and the IC50 [1] was 0.066 µM and the IC50 ([2]; Homo sapiens) was 0.6 µM.

`CNC(=O)c1n[nH]c2cc(-c3nc(C(=O)NCCC(C)c4ccccc4)c(C)n3C)ccc12` (centres unmarked) [Example 32, 6-(1,5-dimethyl-4-((3-phenylbutyl)carbamoyl)-1H-imidazol-2-yl)-N-methyl-1H-indazole-3-carboxamide] gave an IC50 [1] of 0.23 µM and an IC50 ([2]; Homo sapiens) of 0.46 µM.

For `CNC(=O)c1n[nH]c2cc(-c3nc(C(=O)NCC[C@@H](O)c4ccc(Cl)cc4)c(C)n3C)ccc12` [Example 33, (R)-6-(4-((3-(4-chlorophenyl)-3-hydroxypropyl)carbamoyl)-1,5-dimethyl-1H-imidazol-2-yl)-N-methyl-1H-indazole-3-carboxamide], the IC50 [1] was 0.57 µM and the IC50 ([2]; Homo sapiens) was 2.2 µM.

For `CNC(=O)c1n[nH]c2cc(-c3nc(C(=O)NCC[C@H](O)c4ccc(Cl)cc4)c(C)n3C)ccc12` [Example 34, (S)-6-(4-((3-(4-chlorophenyl)-3-hydroxypropyl)carbamoyl)-1,5-dimethyl-1H-imidazol-2-yl)-N-methyl-1H-indazole-3-carboxamide], the IC50 [1] was 0.76 µM and the IC50 ([2]; Homo sapiens) was 1.7 µM.

`CNC(=O)c1n[nH]c2cc(-c3nc(C(=O)NCc4cc(C(F)(F)F)ccc4F)c(C)n3C)ccc12` [Example 35, 6-(4-((2-fluoro-5-(trifluoromethyl)benzyl)carbamoyl)-1,5-dimethyl-1H-imidazol-2-yl)-N-methyl-1H-indazole-3-carboxamide] was tested, and the IC50 [1] was 0.2 µM and the IC50 ([2]; Homo sapiens) was 0.89 µM.

“(S)-6-(5-((3-(4-chlorophenyl)-3-hydroxypropyl)carbamoyl)-4-methylthiophen-2-yl)-N-methyl-1H-indazole-3-carboxamide [Example 13]” gave an IC50 [1] of 0.01 µM and an IC50 [2] of 0.023 µM.
